Data reported in PubChem BioAssay (NCI).
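48-hour exposure; five concentrations; linearly interpolated endpoints. The concentration for 50% growth inhibition is given as GI50. TGI: concentration producing complete growth inhibition.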

Key:
Test in all cases: NCI anticancer screen, dose series, 48 h
LOX IMVI melanoma = tested on: LOX IMVI melanoma
HCT-116 colon = tested on: HCT-116 colon
A549 NSCLC = tested on: A549 NSCLC
HCT-15 colon = tested on: HCT-15 colon
OVCAR-8 ovarian = tested on: OVCAR-8 ovarian
UO-31 renal = tested on: UO-31 renal
RPMI-8226 leukemia = tested on: RPMI-8226 leukemia
LXFL 529 NSCLC = tested on: LXFL 529 NSCLC
KM12 colon = tested on: KM12 colon
KM20L2 colon = tested on: KM20L2 colon

Row | SMILES | TGI (LOX IMVI melanoma) | TGI (HCT-116 colon) | TGI (A549 NSCLC) | TGI (HCT-15 colon) | TGI (OVCAR-8 ovarian) | TGI (UO-31 renal) | TGI (RPMI-8226 leukemia) | TGI (LXFL 529 NSCLC) | TGI (KM12 colon) | TGI (KM20L2 colon) | GI50 (LOX IMVI melanoma) | GI50 (KM20L2 colon) | GI50 (HCT-116 colon) | GI50 (A549 NSCLC) | GI50 (HCT-15 colon) | GI50 (OVCAR-8 ovarian) | GI50 (UO-31 renal) | GI50 (RPMI-8226 leukemia) | GI50 (LXFL 529 NSCLC) | GI50 (KM12 colon)
1 | CC1=C(C(=O)CC(=O)C(=O)Nc2cc(C)ccc2C)Sc2ccccc2N1 | > 100 µM | > 100 µM | > 100 µM | > 100 µM | > 100 µM | > 100 µM | > 100 µM | > 100 µM | > 100 µM |  |  |  |  |  |  |  |  |  |  | 
2 | C=C1C(=O)OC2C/C(C)=C/CC/C(C)=C/CCC3(COC(C)=O)OC3CC12 (stereo not given) | 23 µM | 3.87 µM | 32.2 µM | 10.7 µM | 19.8 µM | 25.5 µM | 13 µM | 8.1 µM | 27.9 µM | 19.9 µM |  |  |  |  |  |  |  |  |  | 
3 | CCC(=O)c1c(NOC2OCC(OC(C)=O)C(OC(C)=O)C2OC(C)=O)nc(OC)n(C)c1=O (stereo not given) | > 100 µM | > 100 µM | > 100 µM | > 100 µM | > 100 µM | > 100 µM | > 100 µM | > 100 µM | > 100 µM | > 100 µM |  |  |  |  |  |  |  |  |  | 
4 | Cc1ccccc1NC(=O)c1cc(-c2ccc([N+](=O)[O-])cc2)nc(=S)[nH]1 | > 100 µM | > 100 µM | > 100 µM | > 100 µM | > 100 µM | > 100 µM |  | > 100 µM | > 100 µM | > 100 µM |  |  |  |  |  |  |  |  |  | 
5 | CCOC(=O)C1=C(Nc2ccc(Cl)cc2Cl)OCC1=O | > 100 µM | > 100 µM | > 100 µM | > 100 µM | > 100 µM | > 100 µM | > 100 µM | > 100 µM | > 100 µM | > 100 µM |  |  |  |  |  |  |  |  |  | 
6 | NCCSSCCN | > 100 µM | > 100 µM | > 100 µM | > 100 µM | > 100 µM | > 100 µM | > 100 µM | > 100 µM | > 100 µM | > 100 µM |  |  |  |  |  |  |  |  |  | 
7 | COC/C=C\COC | > 100 µM | > 100 µM | > 100 µM | > 100 µM | > 100 µM | > 100 µM | > 100 µM | > 100 µM | > 100 µM | > 100 µM |  |  |  |  |  |  |  |  |  | 
8 | CC(=O)N/N=C1\CC(C)(C)C2CCC1C2 (stereo not given) | > 100 µM | > 100 µM | > 100 µM | > 100 µM | > 100 µM | > 100 µM | > 100 µM | > 100 µM | > 100 µM |  |  |  |  |  |  |  |  |  |  | 
9 | CCCNC(=O)C1C(=O)C(=O)N(CCC)C1=O (stereo not given) | > 100 µM | > 100 µM | > 100 µM | > 100 µM | > 100 µM | > 100 µM | > 100 µM | > 100 µM | > 100 µM | > 100 µM |  |  |  |  |  |  |  |  |  | 
10 | N/N=C1\C(=O)N(C2CCCCCC2)C(=O)C1C(=O)NC1CCCCCC1 (stereo not given) |  |  | > 100 µM | 82.7 µM | > 100 µM | 42 µM |  | 78.3 µM | > 100 µM | 38.1 µM |  |  |  |  |  |  |  |  |  | 
11 | CCC[CH2][Sn]([Cl])([Cl])[CH2]CCC | 1.84 µM | 2.61 µM | 8.25 µM | 2.24 µM | 7.02 µM | 2.69 µM | 0.723 µM | 0.474 µM | 2.81 µM | 3.01 µM | 0.464 µM | 1.49 µM | 1.17 µM | 2.65 µM | 0.738 µM | 1.88 µM | 1.39 µM | 0.198 µM | 0.138 µM | 1.35 µM
12 | COc1ccc(NC(=O)CC2SC(=Nc3ccccc3C)NC2=O)c([N+](=O)[O-])c1 (stereo not given) | > 100 µM | > 100 µM | > 100 µM | > 100 µM | > 100 µM | > 100 µM | > 100 µM | > 100 µM | > 100 µM | > 100 µM |  |  |  |  |  |  |  |  |  | 
13 | CCc1ccc(NC(=O)NC(=O)c2ccccc2[N+](=O)[O-])cc1Oc1ncc(Cl)cn1 | 14.5 µM | 3.62 µM | > 100 µM | > 100 µM | > 100 µM | 45.5 µM | > 4.64 µM | > 100 µM | 0.728 µM | 0.0481 µM |  |  |  |  |  |  |  |  |  | 
14 | C=C(CC(NC(=O)c1ccc(C(CC)Cc2cnc3nc(N)nc(N)c3n2)cc1)C(=O)O)C(=O)O (stereo not given) | > 100 µM | > 100 µM | > 100 µM | > 100 µM | > 100 µM | > 100 µM | > 100 µM | > 100 µM |  | > 100 µM |  |  |  |  |  |  | 0.0271 µM |  |  | 
15 | CC1=Nc2c(ccc3c2C(=O)c2ccccc2C3=O)NC(c2cccc3c2CCC3)C1 (stereo not given) | > 100 µM | > 100 µM | > 100 µM | > 100 µM | > 100 µM | > 100 µM | > 100 µM | > 100 µM | > 100 µM | > 100 µM |  |  |  |  |  |  |  |  |  | 
16 | COC12CCC(=O)C=C1c1ccccc1N2C(C)=O (stereo not given) |  | > 100 µM | > 100 µM | > 100 µM | > 100 µM | > 100 µM | > 100 µM | > 100 µM | > 100 µM | > 100 µM |  |  |  |  |  |  |  |  |  | 
17 | CCNC(=O)COc1ccc(Br)cc1Br | > 100 µM | > 100 µM | > 100 µM | > 100 µM |  | > 100 µM | > 100 µM | > 100 µM | > 100 µM | > 100 µM |  |  |  |  |  |  |  |  |  | 
18 | CC(Oc1ccc2c(-c3ccccc3)cc(=O)oc2c1)C(=O)O (stereo not given) | > 100 µM | > 100 µM | > 100 µM |  | > 100 µM | > 100 µM |  | > 100 µM | > 100 µM | > 100 µM |  |  |  |  |  |  |  |  |  | 
19 | O=C(Cc1nc2ccccc2c(=O)n1-c1ccccc1Cl)c1ccncc1 | > 100 µM | > 100 µM | > 100 µM | > 100 µM | > 100 µM | > 100 µM |  | > 100 µM | > 100 µM | > 100 µM |  |  |  |  |  |  |  |  |  | 
20 | O=C(CCC(=O)Nc1ccc(Cl)c(Cl)c1)CC(=O)c1ccc(Br)cc1 | > 100 µM | > 100 µM | > 100 µM | > 100 µM | > 100 µM | > 100 µM | > 100 µM | > 100 µM | > 100 µM | > 100 µM |  |  |  |  |  |  |  |  |  | 
21 | C#Cc1cccc(N2C(=O)c3c(c(-c4ccccc4)c(-c4ccc(Cc5ccc(-c6c(-c7ccccc7)c7c(c(-c8ccccc8)c6-c6ccccc6)C(=O)N(c6cccc(C#C)c6)C7=O)cc5)cc4)c(-c4ccccc4)c3-c3ccccc3)C2=O)c1 |  | > 100 µM | > 100 µM | > 100 µM | > 100 µM | > 100 µM | > 100 µM | > 100 µM | > 100 µM | > 100 µM |  |  |  |  |  |  |  |  |  | 
22 | COc1ccc(NC(=O)/C(=C/c2ccccc2)C(C)=O)cc1 | 27.8 µM |  | 54.2 µM | 40.8 µM | 51.5 µM | 29 µM | 24.8 µM | 24.9 µM | 27.5 µM | 29.2 µM |  |  |  |  |  |  |  |  |  | 
23 | CC1/C=C/[C@@]2(C)CCC(C(C)(C)O)C2C(O)C[C@](C)(O)/C=C/C1 (stereo not given in full) | > 100 µM | > 100 µM | > 100 µM | > 100 µM | > 100 µM | > 100 µM | > 100 µM | > 100 µM | > 100 µM | > 100 µM |  |  |  |  |  |  |  |  |  | 
24 | Cc1ccc(NC(=O)CCc2nc(N)nc(N)c2-c2ccccc2)cc1C |  | > 100 µM | > 100 µM | > 100 µM | > 100 µM | > 100 µM | > 100 µM | > 100 µM | > 100 µM | > 100 µM |  |  |  |  |  |  |  |  |  | 
25 | Cc1nn[n-]n1.N.N.N.N.N.[Cl-].[Co+3] | > 100 µM | > 100 µM | > 100 µM | > 100 µM | > 100 µM | > 100 µM | > 100 µM | > 100 µM | > 100 µM | > 100 µM | > 100 µM | > 100 µM | > 100 µM | > 100 µM | > 100 µM | > 100 µM | > 100 µM | > 100 µM | > 100 µM | > 100 µM
26 | CCOC(=O)C(=O)Nc1ccccc1C | > 100 µM | > 100 µM | > 100 µM | > 100 µM | > 100 µM | > 100 µM | > 100 µM | > 100 µM |  | > 100 µM |  |  |  |  |  |  |  |  |  | 
